Laboratory results published in patent publication US20230414615A1, “PYRIMIDINONE COMPOUNDS FOR TREATING ACUTE INFLAMMATION” (TES Pharma S.r.l., priority 2022, published 2023).

Key:
primary hepatocytes [1] = assay: Gene expression / mRNA levels in primary hepatocytes; assay type: cell-based, mouse; settings: mouse primary hepatocytes after 24 hr treatment
C57BL/6 mice = assay: LPS-induced systemic inflammation in mice, survival; assay type: in vivo, mouse; settings: 50 mg/kg dosed daily, LPS 15 mg/kg
Experimental: Male C57/6 mice (12-15 weeks old) (obtained from Charles River Laboratories) were housed under a 12 h/12 h light/dark cycle with free access to water and standard food. The mice were divided into four groups: control, control+ACMSD inhibitor, LPS, and LPS+the ACMSD inhibitor. LPS (Sigma; 20 mg/kg/d and 1 mg/ml in 0.9% normal saline) was intraperitoneally injected, and the same volume of 0.9% normal saline alone was used as controls. A dose of 15 mg/kg IP injection of the ACMSD inhibitor (e.g. compounds of present disclosure, compound of Formula I, Ia, Ib, and II) was used which was intraperitoneally injected immediately after LPS injection. An equal volume of the solvent was injected in the control and LPS alone groups. The mice were sacrificed at 24 h after various treatments and the liver and kidneys were collected for subsequent analysis.
MATERIALS AND METHODS: Treatment with Compound I-18 in presence of LPS for 24 h has been performed to evaluate anti inflammatory properties and M1 to M2 transition. Renal tubular cells were stimulated with Compound I-18 and TGFβ for 16 hrs to evaluate the expression of genes involved in fibrosis. […] Survival percentage and liver gene modulation has been monitored in Sham groups, LPS and LPS+Compound 1-18 groups (n=8). […] Survival percentage and expression of genes involved in renal inflammation has been monitored.

primary hepatocytes [2] = assay: NAD+ biosynthesis in primary hepatocytes; assay type: cell-based
[3] = system: mouse primary hepatocytes; assay: SOD2 activity in mouse primary hepatocytes; assay type: cell-based; settings: treatment for 24 hrs; stated as dose-dependent
HK2 primary tubule cells = assay: Gene expression in HK2 (HK-2) primary tubule cells, basal or after Cisplatin insult; assay type: cell-based
[4] = system: co-culture primary hepatocytes and Kupffer cells; assay: IL-6 secretion in co-culture of primary hepatocytes and Kupffer cells following LPS-induced inflammation; assay type: cell-based; settings: LPS 50 ng/mL; stated as dose-dependent
[5] = system: human primary bone marrow mononuclear cells (BMMCs); assay: LPS-induced cytokine secretion in human primary bone marrow mononuclear cells (BMMCs); assay type: cell-based
HK2 cells = assay: TGF-β-induced fibrosis in HK2 (renal tubular) cells; assay type: cell-based
Experimental: (§1) MATERIALS AND METHODS: Treatment with Compound I-18 in presence of LPS for 24 h has been performed to evaluate anti inflammatory properties and M1 to M2 transition. Renal tubular cells were stimulated with Compound I-18 and TGFβ for 16 hrs to evaluate the expression of genes involved in fibrosis. Compound 1-18 (50 mg/kg) was dosed daily in mice treated with LPS 15 mg/kg. Survival percentage and liver gene modulation has been monitored in Sham groups, LPS and LPS+Compound 1-18 groups (n=8). 12-15 week old mice underwent CLP (50% ligation, thru-and-thru puncture with 21G needle) to evaluate CLP-induced sepsis. Compound I-18 was dosed at the concentration of 50 mg/kg for 7 days from CLP. Survival percentage and expression of genes involved in renal inflammation has been monitored.

primary hepatocytes [6] = assay: SIRT1 activation in primary hepatocytes; assay type: cell-based; settings: 500 nM; 24 hrs after treatment
murine Kupffer cells = assay: M1/M2 polarisation of murine Kupffer cells treated with LPS; assay type: cell-based, mouse
Experimental: as §1

Kupffer cells [7] = assay: NAD+ biosynthesis in Kupffer cells; assay type: cell-based
Kupffer cells [8] = assay: Cytokine secretion in Kupffer cells following LPS-induced inflammation (Bio-Plex); assay type: cell-based, mouse; settings: LPS 50 ng/mL
Source text: […] Cells treated with DMSO were used as control at the final concentration of 0.5% in medium. All the wells were normalized with DMSO at 0.5% final concentration. The supernatant was collected to measure cytokine secretion using a Bio-Plex Pro mouse cytokine 23-plex assay system (cat #M60009RDPD) using a Bio-Plex Instrument. The cells were washed once with PBS, and then lysed to extract total RNA for performing RT-PCR to evaluate ACMSD modulation of IL-10, SIRT1, and STAT3 gene expression.
All cytokine secretion values were normalized to the luminescent signal relative to the measuring of the cellular ATP (CellTiter-Glo cat #G7571)).

Kupffer cells [9] = assay: Gene expression (RT-PCR) in Kupffer cells; assay type: cell-based, mouse
Experimental: 200,000 Kupffer cells were plated out in a 24 well plate and the ACMSD inhibitor (e.g. compounds of present disclosure, compound of Formula I, Ia, Ib, and II) (5 μM) was added 1 hr before the cells were stimulated with LPS overnight 50 ng/ml (1 mg/mL stock solution in H2O, dispensed at 50 ng/mL in the well) final concentration. Cells treated with DMSO were used as control at the final concentration of 0.5% in medium. All the wells were normalized with DMSO at 0.5% final concentration. The supernatant was collected to measure cytokine secretion using a Bio-Plex Pro mouse cytokine 23-plex assay system (cat #M60009RDPD) using a Bio-Plex Instrument. The cells were washed once with PBS, and then lysed to extract total RNA for performing RT-PCR to evaluate ACMSD modulation of IL-10, SIRT1, and STAT3 gene expression.
Briefly, total RNA was extracted from the cells using the manufacturer's protocol for Qiagen RNeasy Plus Mini Kit (cat. 74134). The total RNA concentration was quantified using an Implen Instrument, and the purity was evaluated by measuring the ratio of A260/A280.
Total RNA (1 μg) was reverse transcribed using the manufacturer's protocol for SuperScript IV VILO Master Mix (ThermoFisher cat. #. 11756500). Real-time PCR was then performed in CFX 96 Real Time System (Bio-Rad) as follows: denaturation at 95° C. for 2 minutes, followed by 40 cycles at 95° C. for 10 s, and hybridization at 60° C. for 20 s. QPCR was performed using the 2× QuantiNova SYBR Green PCR Master Mix (Qiagen). Mouse β2 microglobulin (m 02M) was used as a reference gene.

[10] = 100 μM, HK-2 cells following cisplatin-insult
[11] = cell system not restated (follows HK2 TGF-β experiment)
[12] = murine Kupffer cells treated with LPS

SMILES: N#Cc1c(-c2cccs2)nc(SCc2cccc(CC(=O)O)c2)[nH]c1=O [Compound I-18]
- mRNA levels of mitochondrial genes TFAM, Ndufa, Uqcrc1, CytC, Atp5g1 and CS (primary hepatocytes [1]): increases
- survival in LPS-induced systemic inflammation (C57BL/6 mice): promotes survival
- NAD+ biosynthesis (primary hepatocytes [2]): restores
- activity of mitochondrial superoxide dismutase 2, SOD2 [3]: increases
- reduction of SIRT expression induced by a Cisplatin insult (HK2 primary tubule cells; 50 μM, HK2 primary tubule cells): reverses
- expression of OPA-1 (HK2 primary tubule cells; [10]): increases
- expression of SOD2 (HK2 primary tubule cells; [10]): increases
- expression of SIRT-3 (HK2 primary tubule cells; HK2 primary tubule cells): increases
- mRNA levels of mitochondrial genes Sod1, Ndufa2, Cox2 and CytC (HK2 primary tubule cells; HK-2 cells after 24 hr treatment): increase
- secretion of IL-6 [4]: reduced
- secretion of LPS-induced IL-6 ([5]; 5 μM, human BMMCs): reduces
- secretion of TNFα ([5]; BMMC cells, LPS 50 ng/mL): reduces
- SMAD4 expression (HK2 cells; TGF-β-induced fibrosis in HK2 cells): less modulated
- SMAD3 (HK2 cells; both preventive and therapeutic treatment, TGF-β-induced fibrosis in HK2 cells): dose-dependent reduction
- expression of TIMP2 (HK2 cells; [11]): dose-dependent reduction
- expression of fibronectin (HK2 cells; [11]): dose-dependent reduction
- in vitro fibrosis in renal cells (HK2 cells; renal tubular cells stimulated with TGFβ for 16 hrs): reduced
- SIRT1 activation (primary hepatocytes [6]): activate
- polarisation of resident liver macrophages (Kupffer cells) towards an M2 phenotype (M1-to-M2 transition) (murine Kupffer cells; in vitro, M1 induced by LPS): promoting their conversion
- M1 phenotype gene markers iNOS, IL-6 and TNFα (murine Kupffer cells; [12]): decrease
- M2 phenotype gene markers Arginase-1, Mannose Receptor (Mrc-2) and IL-10 (murine Kupffer cells; [12]): increase
- anti-inflammatory M2 Kupffer macrophages / M2 macrophage phenotype (murine Kupffer cells; [12]): promotes
- pro-inflammatory M1 Kupffer macrophages (murine Kupffer cells; murine Kupffer cells treated with LPS, dose-response manner): blocks
- M2 macrophage phenotype (murine Kupffer cells; two different stimuli (LPS and IL-4)): can promote
- NAD+ biosynthesis (Kupffer cells [7]): restores
- secretion of IL-1β (Kupffer cells [8]; 1 μM): reduces
- secretion of IL-6 (Kupffer cells [8]; 1 μM, incubation time 24 h): reduced
- secretion of TNFα (Kupffer cells [8]): reduces
- secretion of IL-6, dose dependence of the reduction (Kupffer cells [8]; incubation time 24 h): in a dose-dependent manner
- expression of SIRT-1 (Kupffer cells [9]): increases
- QPRT expression (Kupffer cells [9]; inflammatory conditions (LPS at 50 ng/mL), beyond basal conditions): increases
- expression of IL-10 (Kupffer cells [9]; stated as dose-dependent): increases
- expression of STAT3 (Kupffer cells [9]; stated as dose-dependent): increases
